The values that follow come from patent US12064516B2, “Pharmaceutical formulations and uses thereof” (Aldeyra Therapeutics, Inc., priority 2020, dated 2024).

This series in a line: Pharmacokinetic comparison of ADX-102 (reproxalap) and compound I-1 in rats. Format: in vivo, Sprague-Dawley rats. As to conditions: SD Rat.
Setting [1] is: oral gavage 10 mg/kg, CMC/Tween.

Marks after values point to notes of the source that are not given here.

In turn, `CC(C)(O)c1nc2ccc(Cl)cc2cc1N` [ADX-102] had a Vss (intravenous data using captisol formulation) of 1.36 L/kg. Also, the CL (intravenous data using captisol formulation, in mL/min/kg) is 23**. Under setting [1], the “AUC 0-inf/Dose” value was 64, the “AUC 0-t/Dose” value was 60, the AUC(0-inf) amounted to 0.64 µg·h/mL and the AUC(0-t) stood at 0.595 µg·h/mL. Besides, under setting [1], the peak level (Cmax) was 0.39 µg/mL, the Tmax is 0.5 h and the t1/2 came out at 2.27 h.
